The NIST ThermoML archive (doi:10.1016/j.jct.2013.11.022)

Assay: mn = molality of the nth substance listed, in mol/kg
Conditions: 101.33 kPa, Liquid; for viscosity: Capillary tube (Ostwald / Ubbelohde) method; for speed of sound: Sing-around technique in a fixed-path interferometer; for mass density: Vibrating tube method

CCCCCCCCCCCCOS(=O)(=O)[O-].[Na+] [sodium dodecyl sulfate] + O
Conditions	mass density [kg/m3]	speed of sound [m/s]	viscosity [mPa·s]
293.15 K, m1 = 0.0001	998.198	1482.9	1.014
293.15 K, m1 = 0.0003	998.209	1482.9	1.014
293.15 K, m1 = 0.0005	998.221	1483	1.016
293.15 K, m1 = 0.002	998.31	1483.2	1.02
293.15 K, m1 = 0.004	998.425	1483.5	1.02
293.15 K, m1 = 0.006	998.538	1483.7	1.024
293.15 K, m1 = 0.008	998.647	1484	1.026
293.15 K, m1 = 0.01	998.75	1484.2	1.027
293.15 K, m1 = 0.012	998.851	1484.5	1.029
293.15 K, m1 = 0.014	998.949	1484.6	1.034
293.15 K, m1 = 0.016	999.048	1484.8	1.036
293.15 K, m1 = 0.018	999.145	1484.9	1.04
293.15 K, m1 = 0.02	999.237	1485	1.042
293.15 K, m1 = 0.022	999.338	1485.2	1.047
293.15 K, m1 = 0.024	999.426	1485.3	1.052
298.15 K, m1 = 0.0001	997.034	1497	0.895
298.15 K, m1 = 0.0003	997.045	1497	0.8952
298.15 K, m1 = 0.0005	997.057	1497.1	0.8955
298.15 K, m1 = 0.002	997.144	1497.3	0.8963
298.15 K, m1 = 0.004	997.255	1497.6	0.8969
298.15 K, m1 = 0.006	997.365	1497.8	0.8976
298.15 K, m1 = 0.008	997.472	1498.1	0.8981
298.15 K, m1 = 0.01	997.569	1498.4	0.899
298.15 K, m1 = 0.012	997.67	1498.6	0.9008
298.15 K, m1 = 0.014	997.768	1498.7	0.9073
298.15 K, m1 = 0.016	997.867	1498.9	0.9091
298.15 K, m1 = 0.018	997.957	1499	0.9114
298.15 K, m1 = 0.02	998.048	1499.1	0.9136
298.15 K, m1 = 0.022	998.142	1499.3	0.9191
298.15 K, m1 = 0.024	998.232	1499.4	0.9211
303.15 K, m1 = 0.0001	995.633	1509.3	0.801
303.15 K, m1 = 0.0003	995.644	1509.4	0.8015
303.15 K, m1 = 0.0005	995.655	1509.4	0.8018
303.15 K, m1 = 0.002	995.74	1509.6	0.8024
303.15 K, m1 = 0.004	995.848	1509.9	0.8028
303.15 K, m1 = 0.006	995.955	1510.2	0.8032
303.15 K, m1 = 0.008	996.058	1510.4	0.8037
303.15 K, m1 = 0.01	996.155	1510.7	0.8039
303.15 K, m1 = 0.012	996.252	1510.8	0.8054
303.15 K, m1 = 0.014	996.348	1511	0.8085
303.15 K, m1 = 0.016	996.441	1511.2	0.8114
303.15 K, m1 = 0.018	996.536	1511.3	0.8135
303.15 K, m1 = 0.02	996.624	1511.4	0.8161
303.15 K, m1 = 0.022	996.718	1511.6	0.8193
303.15 K, m1 = 0.024	996.807	1511.7	0.8206
308.15 K, m1 = 0.0001	994.016	1520	0.7228
308.15 K, m1 = 0.0003	994.026	1520	0.7232
308.15 K, m1 = 0.0005	994.037	1520	0.7236
308.15 K, m1 = 0.002	994.12	1520.2	0.7241
308.15 K, m1 = 0.004	994.224	1520.5	0.7245
308.15 K, m1 = 0.006	994.327	1520.8	0.725
308.15 K, m1 = 0.008	994.429	1521	0.7253
308.15 K, m1 = 0.01	994.524	1521.3	0.7259
308.15 K, m1 = 0.012	994.619	1521.5	0.7264
308.15 K, m1 = 0.014	994.715	1521.6	0.7279
308.15 K, m1 = 0.016	994.806	1521.8	0.73
308.15 K, m1 = 0.018	994.898	1521.9	0.7345
308.15 K, m1 = 0.02	994.988	1522	0.7388
308.15 K, m1 = 0.022	995.076	1522.2	0.7422
308.15 K, m1 = 0.024	995.164	1522.3	0.7465
313.15 K, m1 = 0.0001	992.2	1529	0.6564
313.15 K, m1 = 0.0003	992.21	1529	0.6566
313.15 K, m1 = 0.0005	992.22	1529.1	0.657
313.15 K, m1 = 0.002	992.299	1529.3	0.6576
313.15 K, m1 = 0.004	992.402	1529.5	0.6585
313.15 K, m1 = 0.006	992.5	1529.8	0.6599
313.15 K, m1 = 0.008	992.601	1530.1	0.6616
313.15 K, m1 = 0.01	992.696	1530.3	0.6628
313.15 K, m1 = 0.012	992.789	1530.5	0.6646
313.15 K, m1 = 0.014	992.884	1530.7	0.6667
313.15 K, m1 = 0.016	992.975	1530.8	0.6689
313.15 K, m1 = 0.018	993.061	1530.9	0.6718
313.15 K, m1 = 0.02	993.153	1531.1	0.6747
313.15 K, m1 = 0.022	993.239	1531.2	0.6775
313.15 K, m1 = 0.024	993.323	1531.3	0.6794

NCC(=O)O [2-aminoacetic acid] + O
Conditions	mass density [kg/m3]	speed of sound [m/s]	viscosity [mPa·s]
293.15 K, m1 = 0.05	999.804	1486.2	1.013
293.15 K, m1 = 0.0999	1001.4	1488.6	1.022
293.15 K, m1 = 0.1499	1002.99	1491.1	1.029
293.15 K, m1 = 0.2001	1004.57	1493.6	1.036
293.15 K, m1 = 0.2504	1006.14	1496	1.039
293.15 K, m1 = 0.2999	1007.67	1498.4	1.048
293.15 K, m1 = 0.3501	1009.21	1500.8	1.056
293.15 K, m1 = 0.3998	1010.72	1503.2	1.06
298.15 K, m1 = 0.05	–	1500.3	0.8991
298.15 K, m1 = 0.0999	1000.21	1502.7	0.908
298.15 K, m1 = 0.1499	1001.78	1505.1	0.9168
298.15 K, m1 = 0.2001	1003.34	1507.5	0.9232
298.15 K, m1 = 0.2504	1004.9	1510	0.9281
298.15 K, m1 = 0.2999	1006.41	1512.3	0.933
298.15 K, m1 = 0.3501	1007.93	1514.7	0.9379
298.15 K, m1 = 0.3998	1009.43	1517	0.946
303.15 K, m1 = 0.05	–	1512.6	0.8077
303.15 K, m1 = 0.0999	998.773	1514.9	0.8177
303.15 K, m1 = 0.1499	1000.33	1517.3	0.8258
303.15 K, m1 = 0.2001	1001.88	1519.6	0.8319
303.15 K, m1 = 0.2504	1003.42	1522	0.8398
303.15 K, m1 = 0.2999	1004.92	1524.2	0.8434
303.15 K, m1 = 0.3501	1006.43	1526.5	0.8511
303.15 K, m1 = 0.3998	1007.92	1528.8	0.8533
308.15 K, m1 = 0.05	995.577	1523.1	0.7296
308.15 K, m1 = 0.0999	997.132	1525.4	0.7366
308.15 K, m1 = 0.1499	998.677	1527.7	0.7404
308.15 K, m1 = 0.2001	1000.22	1530	0.7474
308.15 K, m1 = 0.2504	1001.75	1532.2	0.7518
308.15 K, m1 = 0.2999	1003.24	1534.4	0.7578
308.15 K, m1 = 0.3501	1004.74	1536.7	0.7641
308.15 K, m1 = 0.3998	1006.21	1538.9	0.7679
313.15 K, m1 = 0.05	–	1532.1	0.6609
313.15 K, m1 = 0.0999	–	1534.3	0.6662
313.15 K, m1 = 0.1499	–	1536.5	0.6686
313.15 K, m1 = 0.2001	–	1538.7	0.6721
313.15 K, m1 = 0.2504	999.881	1540.9	0.6759
313.15 K, m1 = 0.2999	1001.36	1543.1	0.6798
313.15 K, m1 = 0.3501	1002.86	1545.3	0.6851
313.15 K, m1 = 0.3998	1004.33	1547.5	0.6881
